One data set concerns GBM-27. Type of data set: cell-based. The method, then:
GMB-27, epithelial (glioblastoma, GMB), from surgical specimens from patients;
(§1) Cell line MCF-7 was cultured in incubator under CO2 (6%) at 37° C. in DMEM high glucose (Dulbecco's Modified Eagle Solution, Gibco-BRL 31966-21) medium with 10% fetal bovine serum inactivated (FBS) (Gibco-BRL 10106-169). Cell lines HL-60, NCI-H524, NCI-H526, NCI-H69, NCI-H82, NCI-H187 and H5B were cultured in an incubator at 37° C. in RPMI-1640 (Sigma R8758) medium with 10% of fetal bovine serum inactivated (FBS) and 2 mM glutamine (Sigma G7513). Cell line NCI-H510A was cultured in incubator in F12K medium with 10% of fetal bovine serum inactivated (FBS). […]
(§2) During the amplification step and the assays, adherent cells were rinsed with DPBS (Dulbecco's Phosphate Buffered Saline, Sigma D1283) three times and afterward treated for 5 minutes with trypsin ([…]) (Gibco-BRL, 15400054) in solution of DPBS at 37° C., and, once detached, transferred in the culturing medium. […] Cells were counted in a Neubauer chamber after labelling with Tripan-Blue.
(§3) Cells were incubated during 72 h in incubator under CO2 atmosphere at 37° C. Cell viability was measured by means of MTT (3-(4,5-dimethylthiazol-2-yl)-2,5-diphenyltetrazolium bromide) assay, Alamar Blue® (Biosource DAL1100) and Hexosaminidase activity test, consecutively, following manufacturer instructions. […]

Data set [1] can be described thus: Stability test in human plasma, LC MS/MS. To be noted: 37° C. The class given is in vitro ADME. The method, then:
For the preparation of stock solutions, H14 was dissolved in water/acetonitrile (95/5, v/v) containing 0.1% formic acid to a concentration of 1.00 mg/mL. Further serial dilutions were carried out in plasma. The concentrations were calculated under consideration of purity.
For preparation of plasma samples, the human blank plasma were fortified with the stock solution using a ratio of 1:100 to obtain a sample with 10.0 μg/mL which was subsequently serial-diluted in human blank plasma.
A volume of 300 μL of human plasma samples for the two peptide concentrations (100 ng/mL and 1000 ng/mL) were transferred to an empty 96 deep well plate. The plate was incubated at 37° C. in a thermomixer at approximately 700 rpm. At selected incubation time points of 0 h, 1 h, 2 h, 4 h, 6 h and 24 h, aliquots of plasma were precipitated with acetonitrile containing internal standard. To an aliquot of 20 μL human plasma samples, 40 μL of acetonitrile containing 1% formic acid and the internal standard was added. After vortex mixing for a few seconds, the samples were centrifuged for about 10 minutes at approximately 50000 g. The temperature of the centrifuge was set to 8° C. An aliquot of 30 μL of the supernatant was transferred to an autosampler vial for analysis using LC MS/MS.
The quantification of H14 was performed by column separation with reverse phase chromatography followed by detection with triple stage quadrupole MS/MS in the selected reaction monitoring mode.

For the next data set, the system named is NCI-H82. Type of data set: cell-based. To be noted: 72 h. The method, then: NCI-H82, epithelial (small cell lung cancer, SCLC), ATCC-CRL-5811;
(§4) Cell line MCF-7 was cultured in incubator under CO2 (6%) at 37° C. in DMEM high glucose (Dulbecco's Modified Eagle Solution, Gibco-BRL 31966-21) medium with 10% fetal bovine serum inactivated (FBS) (Gibco-BRL 10106-169). Cell lines HL-60, NCI-H524, NCI-H526, NCI-H69, NCI-H82, NCI-H187 and H5B were cultured in an incubator at 37° C. in RPMI-1640 (Sigma R8758) medium with 10% of fetal bovine serum inactivated (FBS) and 2 mM glutamine (Sigma G7513). Cell line NCI-H510A was cultured in incubator in F12K medium with 10% of fetal bovine serum inactivated (FBS). Cell line GBM-18 and GBM-27 were cultured in incubator under CO2 (6%) at 37° C. in complete medium (Neurobasal+B27+Glutamax+Growth factors).
(§5) During the amplification step and the assays, adherent cells were rinsed with DPBS (Dulbecco's Phosphate Buffered Saline, Sigma D1283) three times and afterward treated for 5 minutes with trypsin ([…]) (Gibco-BRL, 15400054) in solution of DPBS at 37° C., and, once detached, transferred in the culturing medium. No-adherent cells were centrifuged and transferred in the culturing medium. Cells were counted in a Neubauer chamber after labelling with Tripan-Blue.
(§6) MCF-7, NCI-H187, NCI-H69, NCI-H526 and H5B cells were seeded at a density of 5000 cells/well; NCI-H524 and NCI-H82 were seeded at a density of 2500 cells/well; HL-60 and NCI-H510A at 10000 cells/well in 100 μl of medium in 96 well plates. After 24 h, the compounds to be tested were added to calculate the dose/response curve at the starting concentration of 100 μM with serial dilutions (1:1). Controls were the untreated cells. Each experiment was performed in triplicate.
(§7) Cells were incubated during 72 h in incubator under CO2 atmosphere at 37° C. Cell viability was measured by means of MTT (3-(4,5-dimethylthiazol-2-yl)-2,5-diphenyltetrazolium bromide) assay, Alamar Blue® (Biosource DAL1100) and Hexosaminidase activity test, consecutively, following manufacturer instructions.
(§8) MTT: 1. Stock solution of MTT (475989 Calbiochem) was 5 mg/ml in PBS 1×. As negative control (experiment noise) 3 wells were treated with 20 μl/well of a solution of SDS 10% in H2O. The same control was used for Alamar Blue/Hexosaminidase. 10 μl/well of MTT solution were added and the plate was incubated for 3-4 hr. The medium was discarded and 100 μl of extracting buffer (PBS 1×, 15% SDS, 50% […] N,N-Dimethylformamide, pH 4,7) were added to each well. Plates were incubated for 16 h at room temperature under orbital shaking. Absorbance at 570 nm was finally measured.
(§9) Alamar Blue: 10 μl Alamar Blue solution was added to each well and the plates were incubated for […] in the incubator. Fluorescence ratio at 535/590 (excitation/emission) was measured in Cytofluor (Millipore) fluorimeter. Blank control was determined by lysis of untreated cells with con 2% of Triton X100, right before adding Alamar Blue solution.
(§10) Hexosaminidase activity test: after Alamar Blue lecture, medium was discarded and plates were rinsed once with PBS. 60 μl hexosaminidase substrate (p-nitrophenol-N-acetyl-beta-D-glucosamide 7.5 mM [Sigma N-9376], sodium citrate 0.1 M, pH 5.0, 0.25% Triton X-100) was added to each well and the plates were incubated at 37° C. for 2-5 h, according to the cell type (hexosaminidase activity changes according to the cell type). […] Blank control was the same as described before.
(§11) Data analysis was performed calculating the percentage of cell viability normalized vs. the values of negative control, which was considered equal to 100%. The dose/response curve was fitted through the sigmoidal equation dose-response (variable slope) and the EC50 values were calculated as follow: Y=Bottom+(Top−Bottom)/(1+10^{[(Log EC50−X)*HillSlope]},

The test system of another data set is GBM-18. The class given is cell-based. On the procedure: GMB-18, epithelial (glioblastoma, GMB), from surgical specimens from patients;
as §1, §2, §3

Another data set relates to NCI-H510A. The class given is cell-based. To be noted: 72 h. The method, then: NCI-510A, epithelial (small cell lung cancer, SCLC), ATCC-HBT-124; and Hepatocytes (normal liver), from a donor was provided by Foundation DTI-Donation & Transplantation Institute from surgical wastes and from organs not suitable for transplantation
as §4, §5, §6, §7, §8, §9, §10, §11

The next data set concerns NCI-H69. The class given is cell-based. To be noted: 72 h. The method, then: NCI-69, (small cell lung cancer, SCLC), ATCC-HTB-119;
as §1
During the amplification step and the assays, adherent cells were rinsed with DPBS (Dulbecco's Phosphate Buffered Saline, Sigma D1283) three times and afterward treated for 5 minutes with trypsin ([…]) (Gibco-BRL, 15400054) in solution of DPBS at 37° C., and, once detached, transferred in the culturing medium. […] Cells were counted in a Neubauer chamber after labelling with Tripan-Blue. […]
as §7
MTT: 1. […] Absorbance at 570 nm was finally measured. […]

The subject of a further data set is NCI-H524. The class given is cell-based. To be noted: 72 h. On the procedure: NCI-H524, lung (small cell lung cancer, SCLC), ATCC-CRL-5831;
as §4
During the amplification step and the assays, adherent cells were rinsed with DPBS (Dulbecco's Phosphate Buffered Saline, Sigma D1283) three times and afterward treated for 5 minutes with trypsin ([…]) (Gibco-BRL, 15400054) in solution of DPBS at 37° C., and, once detached, transferred in the culturing medium. No-adherent cells were centrifuged and transferred in the culturing medium. Cells were counted in a Neubauer chamber after labelling with Tripan-Blue. […]
as §7
MTT: 1. […] Absorbance at 570 nm was finally measured.
Alamar Blue: 10 μl Alamar Blue solution was added to each well and the plates were incubated for […] in the incubator. Fluorescence ratio at 535/590 (excitation/emission) was measured in Cytofluor (Millipore) fluorimeter. Blank control was determined by lysis of untreated cells with con 2% of Triton X100, right before adding Alamar Blue solution. […]

Numbered stars: 1 amine (or outer) side, 2 acyl side, 3 side chain; on linkers, the order of the positions; unused ones are H or OH. Bridge positions count the residues as written; N and C are the ends. Square brackets hold non-standard residues; d marks the D form. Peptide text beside a SMILES is read from it. ξ: configuration not given here. ξαMeNle(6-ylidene) = CC(CCCC=[*:3])(N[*:1])C(=O)[*:2]; X1 = CC(CCCCCCC=[*:3])(N[*:1])C(=O)[*:2]

As to `CC(C)C[C@H](NC(=O)[C@H](CCCCN)NC(=O)[C@@H](NC(=O)[C@@H](N)CCCNC(=N)N)C(C)C)C(=O)N[C@H](C(=O)N[C@@H](CC(N)=O)C(=O)N[C@@H](CC(C)C)C(=O)NC1(C)CCCCCCC=CCCCC(C)(C(=O)N[C@H](C(=O)N2CCC[C@H]2C(N)=O)C(C)C)NC(=O)[C@H](CCC(=O)O)NC(=O)[C@H](CCCNC(=N)N)NC(=O)[C@H](CC(C)C)NC(=O)[C@H]([C@@H](C)O)NC(=O)[C@H](C)NC(=O)[C@H](Cc2ccccc2)NC1=O)C(C)C` (stereo partly drawn) [H14] (H-RVKLVNL[X1]FATLRE[ξαMeNle(6-ylidene)]VP-NH2; staple 8-15; N-terminus and C-terminus assumed), the EC50 in the data set with GBM-27 was about 5 µM; in the data set on NCI-H82, about 12.5 µM; in the data set on GBM-18, about 4 µM; with NCI-H510A, about 12 µM; in the data set on NCI-H69 it was about 7 µM; in the data set with NCI-H524, about 12.5 µM. Besides, the “H14 amount (% peak area)” value in data set [1] (100 ng/mL, 0 h) is given as 100 % peak area; in data set [1] (100 ng/mL, 2 h), 96.1 % peak area; in data set [1] (1000 ng/mL, 0 h), 100 % peak area. The remaining at 1 h, 100 ng/mL in data set [1] (100 ng/mL, 1 h, read-out: H14 amount (% peak area)) was determined as 96.1%. For the same molecule, in data set [1] (100 ng/mL, 4 h, read-out: H14 amount (% peak area)), the remaining at 4 h, 100 ng/mL was found to be 102%. Also, in data set [1] (100 ng/mL, 6 h, read-out: H14 amount (% peak area)), the remaining at 6 h, 100 ng/mL stood at 97.2%. Besides, in data set [1] (100 ng/mL, 24 h, read-out: H14 amount (% peak area)), the remaining at 24 h, 100 ng/mL was 108%. For the same molecule, in data set [1] (1000 ng/mL, 1 h, read-out: H14 amount (% peak area)), the remaining at 1 h, 1000 ng/mL worked out at 101%. For the same molecule, the remaining at 2 h, 1000 ng/mL in data set [1] (1000 ng/mL, 2 h, read-out: H14 amount (% peak area)) worked out at 94.9%. Also, the remaining at 4 h, 1000 ng/mL in data set [1] (1000 ng/mL, 4 h, read-out: H14 amount (% peak area)) amounted to 95.4%. Besides, the remaining at 6 h, 1000 ng/mL in data set [1] (1000 ng/mL, 6 h, read-out: H14 amount (% peak area)) stood at 99.9%. Moreover, the remaining at 24 h, 1000 ng/mL in data set [1] (1000 ng/mL, 24 h, read-out: H14 amount (% peak area)) came to 101%.

The EC50 is the concentration that produces a half-maximal response. A lower EC50 goes with a more potent agent.
